Patent publication US20020169101A1, “Treatment of sexual dysfunction” (priority 1999, published 2002)

Tests used:
[1] = system: female rat sexual receptivity; assay: Female rat sexual receptivity test (lordosis quotient); format: in vivo; conditions: for lordosis quotient (LQ) vs LQ before administration: Compound (2) 10-100 mg/kg oral in PEG200, 1 h, quinelorane 6.25 μg/kg s.c., 90 min (FIG. 21)
Description: (§1) Ovariectomised adult female Sprague Dawley rats (180-200 g, from Charles River) were housed in groups of 6 in a reversed lighting system of 12 h light:dark (lights off 7.00-19.00 h). Two weeks after ovariectomy they were used for sexual activity tests. The experiments started at least 5 h into the dark period.
Compound (1) was dissolved in 100% β-cyclodextrin and then diluted with saline to a final solution of 50% 2-hydroxypropyl-β-cyclodextrin. It was administered intraperitoneally (i.p.) at a dose of 10 mg/kg, in a dosing volume of 1 ml/kg. Quinelorane (6.25 μg/kg) was dissolved in water and administered s.c. as positive control. Forty eight hours before testing, ovariectomised female rats (as described above), were primed with 5 μg oestradiol benzoate dissolved in corn oil and injected subcutaneously. […] The females were placed with a series of vigorous male rats and subjected to 10 mounts.
The lordotic response of the animal was recorded and expressed as a percentage of the mounts (i.e. lordosis quotient, LQ), as previously described. Animals showing LQ<20 were considered non-receptive and were included in the study. Each rat was tested prior to administration of the compound and then tested similarly post-injection. The pre-treatment times were 1 h for Compound (1) and vehicle (50% β-cyclodextrin, i.p.) or 90 min for quinelorane.
The above compound was dissolved in PEG200 vehicle and administered orally. Quinelorane dihydrochloride (LY 163,502, 6.25 μg/kg) was dissolved in water and administered subcutaneously (s.c.), as a positive control. Both compounds were administered in a 1 ml/kg volume.
Forty eight hours before tests, the animals were primed with 5 μg oestradiol benzoate (Sigma Chemical. Co. Ltd., UK) dissolved in corn oil and injected subcutaneously. The females were placed with a series of vigorous male rats and subjected to 10 mounts. The lordotic response of the animal was recorded and expressed as a percentage of the mounts (i.e. lordosis quotient, LQ). […] Animals showing higher LQ were not included in the study. […]

[2] = target: T1, human NMB receptor (BB1) (Homo sapiens, UniProt P28336); assay: BB1 binding assay ([125I][Tyr4]bombesin displacement, CHO-K1 membranes); conditions: Table 1, human NMB receptor binding affinity; Ki from IC50 by Cheng-Prusoff; read-out: NMB Ki
T1 construct: expressed in transfected cells; membranes prepared from the cells
T1 sequence (P28336 whole entry): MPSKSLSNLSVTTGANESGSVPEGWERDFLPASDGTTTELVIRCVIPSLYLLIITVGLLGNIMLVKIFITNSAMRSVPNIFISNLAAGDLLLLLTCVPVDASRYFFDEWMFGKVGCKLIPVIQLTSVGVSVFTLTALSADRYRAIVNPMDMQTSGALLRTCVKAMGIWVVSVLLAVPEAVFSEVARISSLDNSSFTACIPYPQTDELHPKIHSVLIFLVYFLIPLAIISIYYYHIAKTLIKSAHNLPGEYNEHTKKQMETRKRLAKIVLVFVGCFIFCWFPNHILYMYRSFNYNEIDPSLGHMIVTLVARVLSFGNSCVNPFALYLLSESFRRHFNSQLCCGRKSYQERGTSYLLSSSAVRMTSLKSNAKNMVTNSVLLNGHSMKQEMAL
Outline: (§2)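 Competition against <0.1 nM [125I][Tyr4]bombesin, 60 min for the NMB receptor and 90 min for the GRP receptor, using homogenised membranes of human-receptor-expressing CHO-K1 cells in pH 7.4 Tris buffer. Bound label was filtered and gamma-counted, with 1 μM bombesin as nonspecific. Ki values came from IC50 via Cheng-Prusoff.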

[3] = target: T2, human GRP receptor (BB2) (Homo sapiens, UniProt P30550); assay: BB2 binding assay ([125I][Tyr4]bombesin displacement, CHO-K1 membranes); conditions: Table 1, human GRP receptor binding affinity; Ki from IC50 by Cheng-Prusoff; read-out: GRP Kj
T2 construct: expressed in transfected cells; membranes prepared from the cells
T2 sequence (P30550 whole entry): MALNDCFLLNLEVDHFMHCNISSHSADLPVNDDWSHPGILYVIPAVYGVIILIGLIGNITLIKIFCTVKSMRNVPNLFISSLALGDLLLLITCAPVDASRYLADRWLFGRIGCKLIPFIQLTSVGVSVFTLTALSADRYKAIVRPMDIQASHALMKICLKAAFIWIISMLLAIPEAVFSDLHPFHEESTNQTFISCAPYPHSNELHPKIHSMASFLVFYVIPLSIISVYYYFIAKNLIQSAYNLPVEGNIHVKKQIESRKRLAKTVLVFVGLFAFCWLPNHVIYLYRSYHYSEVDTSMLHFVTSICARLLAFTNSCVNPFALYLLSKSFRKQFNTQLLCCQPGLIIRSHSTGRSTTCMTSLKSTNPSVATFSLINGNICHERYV
Outline: as §2

[4] = system: female rat sexual proceptivity; assay: Female rat sexual proceptivity test (time investigating male vs female stimulus); format: in vivo
Description: as §1
Tests were carried out in a circular arena of 90 cm diameter, surrounded by a 30 cm high wall. Two small cages with wire-mesh front (15×15 cm) are fixed into the wall such that the front of the cage is <> with the wall and the 2 cages are opposite each other. They contained two stimuli animals: an intact sexually experienced male and a receptive female (ovariectomised, primed with 5 μg oestradiol benzoate dissolved in corn oil and injected subcutaneously 48 hours before the test and with 0.5 mg of progesterone four hours before the test). Sexually naive test and control animals were used. Forty eight hours before the tests, both the test and control animals were primed with 5 μg oestradiol benzoate. For animals used as positive controls, progesterone (0.5 mg/0.1 ml) was dissolved in corn oil and administered subcutaneously (s.c.), 4 h before the test. Test and control animals were introduced one at a time for 10 minute periods into the arena. During the 10 min test, the time that the test or positive control animal spent investigating each stimulus animal was noted. The arena was thoroughly cleaned between animals. The position of the male/female stimuli boxes was randomised between animals, in order to avoid place preference. The difference in the percentage of time spent investigating the male minus the female stimuli was calculated, out of the total time spent investigating stimuli animals.
Compound (1) was dissolved in 100% β-cyclodextrin and then diluted with saline to a final solution of 50% 2-hydroxypropyl-β-cyclodextrin. It was administered intraperitoneally (i.p.) at doses of 3 and 10 mg/kg, in a dosing volume of 1 ml/kg, 1 h before tests. Progesterone (0.5 mg/0.1 ml) was dissolved in corn oil and administered subcutaneously (s.c.), 4 h before test, as a positive control.
Ovariectomised adult female Sprague Dawley rats (180-200 g) were housed in groups of 5 in a reversed lighting system of 12 h light:dark (lights off 5.00-17.00 h). They were used for the experiments at least two weeks after ovariectomy. Forty eight hours before tests, the animals were primed with oestradiol benzoate (5 μg/[…] in corn oil, s.c.). On day 1, progesterone (0.5 mg/0.1 ml, in corn oil, s.c.) was administered to one of the groups 4 h before tests, as a positive control. Compound (1) (15 mg/kg, i.p.) was administered in 50% 2-hydroxypropyl-β-cyclodextrin, 1 h before tests. The test lasted 10 minutes and was carried out as described before. The difference in the percentage of time spent investigating the male minus the female stimuli was calculated, out of the total time spent investigating stimuli animals. Animals were submitted to a test on day 1 and on day 15. From day 2 to 14 the Compound (1) group received a daily injection of the compound (15 mg/kg, i.p.), while both the vehicle and the progesterone groups received an injection of vehicle. On day 15 the test took place again, as described for day 1.
Ovariectomised female rats (Sprague Dawley, obtained from Charles River, UK) were stereotaxically implanted (coordinates 0.89 mm behind Bregma, 1.3 mm lateral and 2.5 mm vertical) with stainless steel cannulae (6 mm long, O.D. 0.75 mm), held in place with dental cement. Animals were housed in groups of three and returned to a reversed lighting system of 12 h light:dark (lights off 5.00-17.00 h). Correct placement of the cannulae was assessed post-mortem. Rats were used for tests two weeks after ovariectomy (one week after cannulation). The experiments started at least 5 h into the dark period. […]

[5] = system: female rat sexual proceptivity (NMB-inhibited); assay: Inhibition of female rat proceptivity by i.c.v. NMB and its antagonism; format: in vivo; conditions: progesterone 0.5 mg s.c. 4 h; NMB 100 ng i.c.v. 10 min before test in progesterone-treated rats; Compound (1) 15 mg/kg i.p. 1 h before NMB (FIG. 5)
Description: Ovariectomised female rats (Sprague Dawley, obtained from Charles River, UK) were stereotaxically implanted (coordinates 0.89 mm behind Bregma, 1.3 mm lateral and 2.5 mm vertical) with stainless steel cannulae (6 mm long, O.D. 0.75 mm), held in place with dental cement. Animals were housed in groups of three and returned to a reversed lighting system of 12 h light:dark (lights off 5.00-17.00 h). Correct placement of the cannulae was assessed post-mortem. Rats were used for tests two weeks after ovariectomy (one week after cannulation). The experiments started at least 5 h into the dark period. Forty eight hours before tests, the animals were primed with 5 μg oestradiol benzoate (OB) (s.c, in corn oil) and adapted to the apparatus (in the absence of stimuli animals) for 10 min on 2 consecutive days prior testing. The 10 min test was carried out as previously described. The difference in the percentage of time spent investigating male minus female was calculated, out of the total time spent investigating stimuli.
Progesterone (Prog, 0.5 mg/0.1 ml) was dissolved in corn oil and administered subcutaneously (s.c.), 4 h before test, to induce proceptive behaviour. Compound (1) (15 mg/kg, i.p.) was dissolved in 50% 2-hydroxypropyl-β-cyclodextrin in saline and administered 1 h before the i.c.v. administration. Neuromedin B was obtained from Bachem, UK. It was dissolved in isotonic saline and administered i.c.v. over a 30 sec period, with the aid of a pump set to deliver a flow of 10 μl/min, 10 min before tests. The dosing volume was 5 μl/rat. Each rat received a total amount of 100 ng.

[6] = Plasma sexual hormone levels in ovariectomised female rats (radioimmunoassay); format: in vivo, rat; conditions: Compound (1) 3-10 mg/kg i.p. 1 h, progesterone 0.5 mg s.c. 4 h before blood collection
Description: Ovariectomised adult female Sprague Dawley rats (180-200 g) were housed in groups of 6 in a reversed lighting system of 12 h light:dark (lights off 7.00-19.00 h). They were used for the experiments at least two weeks after ovariectomy. Forty eight hours before tests, the animals were primed with oestradiol benzoate (5 μg/0.1 ml in corn oil, s.c.). Progesterone (0.5 mg/0.1 ml, in corn oil, s.c.) was administered 4 h before blood collection, as a positive control. Compound (1) (3-10 mg/kg, i.p.) was administered in 50% 2-hydroxypropyl-β-cyclodextrin, 1 h prior to blood collection. Blood was collected from the trunk, after decapitation. It was immediately centrifuged (3500 r.p.m., 4° C., 5 min) and the plasmas frozen until assayed for hormonal content, using commercially available radioimmunoassay kits (^125I-labelled hormones) for oestradiol, progesterone, LH, FSH and prolactin.

## CCCN1CCC[C@@H]2Cc3nc(N)ncc3C[C@H]21 [quinelorane, reference compound]
[1]
  lordosis quotient (LQ) vs LQ before administration: significantly (P<0.01) increased the LQ

## COc1ccc(C2(CNC(=O)[C@](C)(Cc3c[nH]c4ccccc34)Nc3nc(-c4ccc([N+](=O)[O-])cc4)co3)CCCCC2)nc1 [Example 9, (S)-3-(1H-Indol-3-yl)-N-[1-(5-methoxy-pyridin-2-yl)-cyclohexylmethyl]-2-methyl-2-[4-(4-nitro-phenyl)-oxazol-2-ylamino]-propionamide]
[2]
  Ki: 4 nM
[3]
  Ki: 24 nM
[4]; oral, 30-100 mg/kg in PEG 200, 1 h before test (FIG. 19)
  percentage of time spent investigating the male stimulus: dose-dependently (30-100) increased the percentage of time spent investigating the male stimulus
[4]; p.o., 3-30 mg/kg in 0.5% methyl cellulose, 1 h before test (FIG. 20)
  percentage of time spent investigating the male stimulus: dose-dependently (3-30 mg/kg) increased the percentage of time spent investigating the male stimulus
[1]
  lordosis quotient (LQ) vs LQ before administration: dose-dependently (10-100 mg/kg) increased the LQ
[1]; single oral administration, 10-100 mg/kg in PEG200, 1 h after administration
  MED for increase of lordosis quotient (LQ): 100 mg/kg
other
  melting point: 100 to 105 °C

## CC(=O)[C@H]1CC[C@H]2[C@@H]3CCC4=CC(=O)CC[C@]4(C)[C@H]3CC[C@]12C [progesterone, reference compound]
[4]; Compound (1) 15 mg/kg i.p. 1 h before test, progesterone 0.5 mg s.c. 4 h before test (FIG. 3)
  proceptivity on day 1 vs vehicle: stimulatory effect on proceptivity
[5]
  proceptivity (percentage of time investigating male minus female stimulus): increased the percentage of time spent investigating the male stimulus
[6]; vs vehicle (FIG. 6)
  plasma levels of progesterone: significant increase in the progesterone plasma levels
[6]; vs vehicle (FIG. 9)
  plasma levels of LH: significant decrease in LH plasma levels

## neuromedin B [NMB]
[5]
  proceptivity (percentage of time investigating male minus female stimulus): significantly reduced proceptivity
